Measurements taken from the RepoRT retention time repository (doi:10.1016/j.foodchem.2021.129757).

Tests used:
Settings in all cases: stereoisomer not certain
[1] = RP, 100 × 0.5 mm, 2.7 µm, 45 °C, 0.015 mL/min, estimated dead time 0.83 min; A: water + 0.9% formic acid; B: acetonitrile + 0.9% formic acid; gradient (min/%B) 0/1 0.5/1 4/95 4.5/1 5/1
[2] = RP, 50 × 0.5 mm, 2.7 µm, 35 °C, 0.01 mL/min, estimated dead time 0.62 min; A: water + 0.1% formic acid, pH 3; B: acetonitrile + 0.1% formic acid, pH 3; gradient (min/%B) 0/5 12/95 14/95 16/5
[3] = RP, Phenomenex Synergi Hydro-RP, 150 × 2 mm, 4 µm, 30 °C, 0.5 mL/min, estimated dead time 0.6 min; A: water + 0.1% formic acid, pH 3; B: acetonitrile + 0.1% formic acid, pH 3; gradient (min/%B) 0/5 1/5 35/45 40/100 45/100
[4] = RP, Phenomenex Luna Omega Polar C18, 100 × 2.1 mm, 1.6 µm, 40 °C, 0.5 mL/min, estimated dead time 0.44 min; A: water + 0.5% formic acid; B: acetonitrile + 0.5% formic acid; gradient (min/%B) 0/5 3/50 3.1/100 5/100 5.1/5 7/5
[5] = RP, Phenomenex Luna C18, 150 × 4.6 mm, 3 µm, 25 °C, 0.5 mL/min, estimated dead time 3.2 min; A: water + 0.1% formic acid, pH 3; B: acetonitrile + 0.1% formic acid, pH 3; gradient (min/%B) 0/0 30/30 35/40 50/80 52/80 60/0 65/0
[6] = RP, Phenomenex Luna Omega Polar C18, 100 × 2.1 mm, 1.6 µm, 40 °C, 0.5 mL/min, estimated dead time 0.44 min; A: water + 0.1% formic acid + 10 mM ammonium formate; B: acetonitrile; gradient (min/%B) 0/5 8/20 10/100 12/100 12.1/5 14/5
[7] = RP, Agilent ZORBAX Eclipse XDB-C18, 100 × 2.1 mm, 1.8 µm, 50 °C, 0.4 mL/min, estimated dead time 0.55 min; A: water + 0.1% formic acid, pH 3; B: methanol + 0.1% formic acid, pH 3; gradient (min/%B) 0/2 10/100 14.5/100 14.51/2 16.5/2
[8] = RP, Waters ACQUITY UPLC BEH Shield RP18, 100 × 2.1 mm, 1.7 µm, 30 °C, 0.6 mL/min, estimated dead time 0.37 min; A: water + 0.1% formic acid, pH 3; B: acetonitrile + 0.1% formic acid, pH 3; gradient (min/%B) 0/0 2/0 7/10 22/95 22.1/0 26/0
[9] = RP, Merck Supelco SUPELCOSIL LC-C18, 250 × 4.6 mm, 5 µm, 40 °C, 1 mL/min, estimated dead time 2.6 min; A: water + 0.1% trifluoroacetic acid, pH 2; B: acetonitrile + 0.1% trifluoroacetic acid, pH 2; gradient (min/%B) 0/5 45/35 47/75 49/35 50/5
[10] = RP, Phenomenex Synergi Hydro-RP, 250 × 2 mm, 4 µm, 25 °C, 0.2 mL/min, estimated dead time 2.5 min; A: water + 0.1% formic acid, pH 3; B: acetonitrile + 0.1% formic acid, pH 3; gradient (min/%B) 0/0.5 7/0.5 12/12.5 25/16.3 47/35 48/65 50/65 50.1/0.5
[11] = Other, Phenomenex Kinetex PFP, 100 × 4.6 mm, 2.6 µm, 35 °C, 1.5 mL/min, estimated dead time 0.71 min; A: water + 0.1% trifluoroacetic acid, pH 2; B: acetonitrile + 0.1% trifluoroacetic acid, pH 2; gradient (min/%B) 0/1 7/7.5 14/7.6 17/10 18.5/12 20/12.5 24/30 25/90 25.1/1 32/1
[12] = RP, Agilent ZORBAX RRHD Eclipse Plus C18, 50 × 2.1 mm, 1.8 µm, 30 °C, 0.4 mL/min, estimated dead time 0.28 min; A: water + 0.1% formic acid, pH 3; B: acetonitrile + 0.1% formic acid, pH 3; gradient (min/%B) 0/1 5/10 8/25 9.1/99 10/99 12/1
[13] = RP, Agilent ZORBAX RRHD Eclipse Plus C18, 50 × 2.1 mm, 1.8 µm, 30 °C, 0.4 mL/min, estimated dead time 0.28 min; A: water + 0.1% formic acid, pH 3; B: acetonitrile + 0.1% formic acid, pH 3; gradient (min/%B) 0/1 5/10 8/25 9.1/99 10/99 12/99
[14] = RP, 150 × 2.1 mm, 2.6 µm, 40 °C, 0.35 mL/min, estimated dead time 0.94 min; A: water + 0.1% formic acid, pH 3; B: acetonitrile + 0.1% formic acid, pH 3; gradient (min/%B) 0/0 1/0 12.5/100 14/100 14.2/0 15/0
[15] = RP, 150 × 2.1 mm, 2.6 µm, 40 °C, 0.35 mL/min, estimated dead time 0.94 min; A: water + 0.1% formic acid, pH 3; B: acetonitrile + 0.1% formic acid, pH 3; gradient (min/%B) 0/0 1/5 7/45 8.5/80 10.5/80 11/5 12/5
[16] = Other, Phenomenex Kinetex PFP, 100 × 4.6 mm, 5 µm, 45 °C, 0.6 mL/min, estimated dead time 1.8 min; A: water + 0.1% trifluoroacetic acid, pH 2; B: methanol; gradient (min/%B) 0/40 20/72 21/40
[17] = RP, Agilent InfinityLab Poroshell 120 EC-C18, 100 × 3 mm, 2.7 µm, 25 °C, 0.4 mL/min, estimated dead time 1.1 min; A: water + 0.1% formic acid, pH 3; B: acetonitrile + 0.1% formic acid, pH 3; gradient (min/%B) 0/5 10/25 20/40 24/90 25/90 26/5 30/5
[18] = RP, Waters ACQUITY UPLC HSS T3, 100 × 2.1 mm, 50 °C; A: water + 0.1% formic acid, pH 3; B: 30% methanol + 70% acetonitrile + 0.1% formic acid, pH 3; gradient (min/%B) 0/5 1/8 2/15 3/40 4/70 4.5/100 5/100 6.4/100 6.6/5 6.8/5 7/5
[19] = RP, Merck LiChrospher RP-18, 250 × 4 mm, 5 µm, 35 °C, 0.3 mL/min, estimated dead time 6.7 min; A: water + 0.5% formic acid; B: acetonitrile + 0.5% formic acid; gradient (min/%B) 0/5 10/5 30/15 45/20 65/20 95/54 110/63 115/5 135/5
[20] = RP, Waters ACQUITY UPLC HSS T3, 100 × 2.1 mm, 1.8 µm, 30 °C, 0.4 mL/min, estimated dead time 0.55 min; A: water + 0.1% formic acid, pH 3; B: acetonitrile + 0.1% formic acid, pH 3; gradient (min/%B) 0/0 2/0 15/100 22/100 22.1/0 26/0
[21] = RP, Waters ACQUITY UPLC BEH C18, 100 × 2.1 mm, 1.7 µm, 65 °C, 0.4 mL/min, estimated dead time 0.55 min; A: water + 0.1% formic acid, pH 3; B: 80% acetonitrile + 20% acetone + 0.1% formic acid, pH 3; gradient (min/%B) 0/0 5/100 5.5/0 6/0
[22] = RP, Waters ACQUITY UPLC BEH Shield RP18, 150 × 2.1 mm, 1.7 µm, 40 °C, 0.4 mL/min, estimated dead time 0.83 min; A: water + 0.1% formic acid, pH 3; B: acetonitrile + 0.1% formic acid, pH 3; gradient (min/%B) 0/0 30/50 31/100 37/100 37.1/0
[23] = RP, Waters Atlantis T3, 100 × 2.1 mm, 3 µm, 40 °C, 0.3 mL/min, estimated dead time 0.73 min; A: water + 0.1% trifluoroacetic acid, pH 2; B: acetonitrile + 0.1% trifluoroacetic acid, pH 2; gradient (min/%B) 0/10 1/10 6/40 7/50 8/50 14/70 16/80 20/10 25/10

Compound `Oc1cc(O)c2c(c1)OC(c1ccc(O)c(O)c1)C(O)C2` (single isomer, unassigned; (-)) [(-)-Epicatechin] has an LC retention time [1] of 2.32 min, an LC retention time [2] of 3.43 min and an LC retention time [3] of 11.3 min. It also gave an LC retention time [4] of 1.99 min, an LC retention time [5] of 15.9 min and an LC retention time [6] of 4.95 min. The LC retention time [7] was 3.7 min, the LC retention time [8] was 11.5 min and the LC retention time [9] was 16.8 min.

`O=C(O)c1c(O)cc(O)cc1O` [2,4,6-trihydroxybenzoic acid] showed an LC retention time [10] of 15.9 min and an LC retention time [11] of 9.72 min.

Compound `O=Cc1ccc(O)cc1O` [2,4-dihydroxybenzaldehyde] has an LC retention time [11] of 14.7 min.

`O=C(O)c1cc(O)cc(O)c1` [3,5-Dihydroxybenzoic acid] showed an LC retention time [12] of 4.25 min, an LC retention time [13] of 2.82 min and an LC retention time [11] of 4.93 min.

Compound `Cc1cccc(C(=O)NCC(=O)O)c1` [3-methylhippuric acid] has an LC retention time [11] of 14.8 min.

With `Cc1ccc(C(=O)NCC(=O)O)cc1` [4-methylhippuric acid] the LC retention time [11] was 14.5 min.

With `COc1cccc(O)c1C(=O)O` [6-Methoxysalicyclic acid] the LC retention time [11] was 22.1 min.

With `O=c1ccc2ccc(O)c(O)c2o1` [7,8-Dihydroxycoumarin] the LC retention time [14] was 4.84 min, the LC retention time [15] was 4.64 min and the LC retention time [12] was 6.14 min. It also gave an LC retention time [11] of 12 min.

`Oc1cc(O)c2cc(O)c(-c3ccc(O)c(O)c3)[o+]c2c1` [Cyanidin] gave an LC retention time [1] of 3.19 min, an LC retention time [16] of 10.8 min and an LC retention time [4] of 3.17 min. The LC retention time [7] was 3.52 min, the LC retention time [9] was 29.1 min and the LC retention time [17] was 5.63 min.

With `O=c1c(O)c(-c2ccc(O)cc2)oc2cc(O)cc(O)c12` [Kaempferol] the LC retention time [1] was 3.2 min, the LC retention time [2] was 6.31 min and the LC retention time [3] was 26.7 min. For the same compound, the LC retention time [4] was 3.7 min, the LC retention time [5] was 37.7 min and the LC retention time [18] was 3.88 min. It also gave an LC retention time [19] of 97.6 min, an LC retention time [6] of 9.66 min and an LC retention time [20] of 11.6 min. For the same compound, the LC retention time [7] was 6.86 min, the LC retention time [21] was 3.02 min and the LC retention time [8] was 16.6 min. For the same compound, the LC retention time [22] was 24.5 min, the LC retention time [12] was 9.16 min and the LC retention time [13] was 9.29 min. The LC retention time [9] was 43.8 min, the LC retention time [17] was 14.1 min and the LC retention time [10] was 52.3 min. It also gave an LC retention time [23] of 10.2 min.

With `O=C(O)CC(=O)O` [Malonic acid] the LC retention time [11] was 1.52 min.

`COC(=O)c1cc(O)c(O)c(O)c1` [Methyl 3,4,5-trihydroxybenzoate] showed an LC retention time [11] of 8.64 min.

`COC(=O)c1ccc(O)c(O)c1` [Methyl 3,4-dihydroxybenzoate] gave an LC retention time [11] of 15.3 min.

`COC(=O)c1ccc(O)c(OC)c1` [Methyl vanillate] showed an LC retention time [7] of 5.37 min and an LC retention time [11] of 23 min.

For `O=Cc1c(O)cc(O)cc1O` [Phloroglucinol aldehyde], the LC retention time [10] was 27.6 min and the LC retention time [11] was 18.5 min.

Compound `Oc1ccc(C=Cc2cc(O)cc(O)c2)cc1` [Resveratrol] has an LC retention time [1] of 2.88 min, an LC retention time [2] of 5.18 min and an LC retention time [16] of 10.8 min. It also gave an LC retention time [3] of 20 min, an LC retention time [4] of 2.96 min and an LC retention time [5] of 38.8 min. For the same compound, the LC retention time [19] was 85.7 min, the LC retention time [6] was 9.3 min and the LC retention time [20] was 10.4 min. For the same compound, the LC retention time [7] was 5.24 min, the LC retention time [21] was 2.48 min and the LC retention time [8] was 14.7 min. The LC retention time [22] was 17.9 min, the LC retention time [9] was 31.6 min and the LC retention time [17] was 14.7 min.

`O=C(C=Cc1ccc(O)c(O)c1)OC(Cc1ccc(O)c(O)c1)C(=O)O` (centres undefined) [Rosmarinic acid] showed an LC retention time [1] of 2.28 min, an LC retention time [2] of 4.8 min and an LC retention time [16] of 9.57 min. For the same compound, the LC retention time [3] was 18.4 min, the LC retention time [5] was 30 min and the LC retention time [19] was 79.8 min. For the same compound, the LC retention time [6] was 8.46 min, the LC retention time [20] was 9.87 min and the LC retention time [7] was 5.41 min. It also gave an LC retention time [8] of 13.7 min, an LC retention time [22] of 14.6 min and an LC retention time [9] of 31 min. For the same compound, the LC retention time [17] was 11.5 min, the LC retention time [10] was 39.2 min and the LC retention time [23] was 8.18 min.

Compound `COc1cc2ccc(=O)oc2cc1O` [Scopoletin] has an LC retention time [14] of 5.86 min, an LC retention time [15] of 5.8 min and an LC retention time [11] of 20.4 min.

Compound `COc1ccc(C(=O)O)cc1` [p-anisic acid] has an LC retention time [10] of 39.1 min and an LC retention time [11] of 20.6 min.
